Data published in patent US7592160B2, “Processes for producing isomaltose and isomaltitol and use thereof” (Kabushiki Kaisha Hayashibara Seibutsu Kagaku Kenkyujo, priority 2001, dated 2009).

Tests used:
[1] = test system: α-isomaltosylglucosaccharide-forming enzyme; assay: Influence of metal ions on α-isomaltosylglucosaccharide-forming enzyme activity (C9 strain); type: biochemical, Bacillus globisporus C9 strain; details: for effect on the enzyme activity, in words: 1 mM, Table 3; for Relative activity (%): in the presence of 1 mM of each metal-ion, None = 100
Method: (§1) About 20 L of a fresh preparation of the same liquid culture medium as used in the above seed culture were placed in a 30-L fermentor, sterilized by heating, and then cooled to 27° C. and inoculated with 1% (v/v) of the seed culture, followed by culturing at 27° C. and pH 6.0 to 8.0 for 48 hours under aeration-agitation conditions. […] These activities were assayed as follows: The activity of α-isomaltosylglucosaccharide-forming enzyme was assayed by dissolving maltotriose in 100 mM acetate buffer (pH 6.0) to give a concentration of 2% (w/v) for a substrate solution, adding a 0.5 ml of an enzyme solution to a 0.5 ml of the substrate solution, enzymatically reacting the mixture solution at 35° C. for 60 min, suspending the enzymatic reaction by boiling the solution for 10 min, and quantifying maltose, among the isomaltosyl maltose and maltose formed mainly in the reaction mixture, on HPLC disclosed in Experiment 1. One unit activity of α-isomaltosylglucosaccharide-forming enzyme is defined as the enzyme amount that forms one micromole of maltose per minute under the above enzymatic reaction conditions. Throughout the specification, the enzymatic activity of α-isomaltosylglucosaccharide-forming enzyme means the unit(s) assayed as above.
(§2) The influence of metal ions on the activity of α-isomaltosylglucosaccharide-forming enzyme was examined in the presence of 1 mM of each metal-ion according to the assay for its enzyme activity.

[2] = test system: α-isomaltosyl-transferring enzyme; assay: Influence of metal ions on α-isomaltosyl-transferring enzyme activity (C9 strain); type: biochemical, Bacillus globisporus C9 strain; details: for Relative activity (%): in the presence of 1 mM of each metal-ion, None = 100; for effect on the enzyme activity, in words: 1 mM, Table 4
Method: (§3) The activity of α-isomaltosyl-transferring enzyme was assayed by dissolving panose in 100 mM acetate buffer (pH 6.0) to give a concentration of 2% (w/v) for a substrate solution, adding a 0.5 ml of an enzyme solution to 0.5 ml of the substrate solution, enzymatically reacting the mixture solution at 35° C. for 30 min, suspending the enzymatic reaction by boiling the solution for 10 min, and quantifying glucose, among the cyclotetrasaccharide and glucose formed mainly in the reaction mixture, by the glucose oxidase method. One unit activity of α-isomaltosyl-transferring enzyme is defined as the enzyme amount that forms one micromole of glucose per minute under the above enzymatic reaction conditions. Throughout the specification, the enzymatic activity of α-isomaltosyl-transferring enzyme means the unit(s) assayed as above.
(§4) The influence of metal ions on the activity of α-isomaltosyl-transferring enzyme was examined in the presence of 1 mM of each metal-ion according to the assay for its enzyme activity.

[3] = test system: α-isomaltosylglucosaccharide-forming enzyme; assay: Influence of metal ions on α-isomaltosylglucosaccharide-forming enzyme activity (C11 strain); type: biochemical, Bacillus globisporus C11 strain; details: for effect on the enzyme activity, in words: 1 mM, Table 7; for Relative activity (%): in the presence of 1 mM of each metal-ion, None = 100
[4] = test system: α-isomaltosyl-transferring enzyme; assay: Influence of metal ions on α-isomaltosyl-transferring enzyme activity (C11 strain); type: biochemical, Bacillus globisporus C11 strain; details: for Relative activity (%): in the presence of 1 mM of each metal-ion, None = 100; for effect on the enzyme activity, in words: 1 mM, text on Table 8
Method: as §3, §4

[5] = test system: α-isomaltosylglucosaccharide-forming enzyme; assay: Influence of metal ions on α-isomaltosylglucosaccharide-forming enzyme activity (N75 strain); type: biochemical, Bacillus globisporus N75 strain; details: for Relative activity (%): in the presence of 1 mM of each metal-ion, None = 100; for effect on the enzyme activity, in words: 1 mM, Table 13
Method: as §1, §2

[6] = test system: α-isomaltosyl-transferring enzyme; assay: Influence of metal ions on α-isomaltosyl-transferring enzyme activity (N75 strain); type: biochemical, Bacillus globisporus N75 strain; details: for Relative activity (%): in the presence of 1 mM of each metal-ion, None = 100; for effect on the enzyme activity, in words: 1 mM, Table 14
Method: as §3
The influence of temperature and pH on the activity of α-isomaltosyl-transferring enzyme was examined in accordance with the assay for its enzyme activity. […] The thermal stability of the enzyme was determined by incubating the testing enzyme solutions in the form of 20 mM acetate buffer (pH 6.0) at prescribed temperatures for 60 min, cooling the resulting enzyme solutions with water, and assaying the remaining enzyme activity of each solution. The pH stability of the enzyme was determined by keeping the testing enzyme solutions in the from of 50 mM buffers having prescribed pHs at 4° C. for 24 hours, adjusting the pH of each solution to 6.0, and assaying the remaining enzyme activity of each solution. […] The influence of metal ions on the activity of α-isomaltosyl-transferring enzyme was examined in the presence of 1 mM of each metal-ion according to the assay for its enzyme activity.

[7] = test system: α-isomaltosylglucosaccharide-forming enzyme; assay: Influence of metal ions on α-isomaltosylglucosaccharide-forming enzyme activity (A19 strain); type: biochemical, Arthrobacter globiformis A19 strain; details: for Relative activity (%): in the presence of 1 mM of each metal-ion, None = 100; for effect on the enzyme activity, in words: 1 mM, Table 19
[8] = test system: α-isomaltosyl-transferring enzyme; assay: Influence of metal ions on α-isomaltosyl-transferring enzyme activity (S1 strain); type: biochemical, Arthrobacter ramosus S1 strain; details: for Relative activity (%): in the presence of 1 mM of each metal-ion, None = 100; for effect on the enzyme activity, in words: 1 mM, Table 21
Method: as §3, §4

SMILES	effect on the enzyme activity, in words [1]	Relative activity (%) [1]	Relative activity (%) [2]	effect on the enzyme activity, in words [3]	Relative activity (%) [3]	Relative activity (%) [4]	Relative activity (%) [5]	Relative activity (%) [6]	Relative activity (%) [7]	Relative activity (%) [8]	effect on the enzyme activity, in words [2]	effect on the enzyme activity, in words [4]	effect on the enzyme activity, in words [5]	effect on the enzyme activity, in words [6]	effect on the enzyme activity, in words [7]	effect on the enzyme activity, in words [8]	Relative activity (%) ([4]; listed as Fe^3+)	Relative activity (%) ([6]; listed as Fe^3+)	Relative activity (%) ([7]; listed as Fe^3+)	Relative activity (%) ([8]; listed as Fe^3+)
[Sr+2] [Sr^2+]	also inhibited	80%	101%	also inhibited	83%	93%	85%	91%	102%	101%										
[Pb+2] [Pb^2+]		103%	89%		101%	74%	86%	69%	43%	85%										
[Hg+2] [Hg^2+]	strongly inhibited	4%	1%	strongly inhibited	4%	2%	1%	0.5%	0%	0.1%	strongly inhibited	strongly inhibited	strongly inhibited	strongly inhibited	strongly inhibited	strongly inhibited				
[Ca+2] [Ca^2+]	activated	115%	101%	activated	109%	91%	108%	100%	106%	103%	not activated	not activated	activated	not activated		neither activated				
[Al+3] [Al^3+]			103%			89%		94%	37%	93%										
[Zn+2] [Zn^2+]		92%	88%		91%	83%	82%	75%	56%	78%										
[Co+2] [Co^2+]		100%	103%		96%	89%	93%	92%	93%	91%										
[Ni+2] [Ni^2+]			102%			89%		91%	46%	87%										
O=C(O)CN(CCN(CC(=O)O)CC(=O)O)CC(=O)O [EDTA, ethylenediaminetetraacetic acid]	strongly inhibited	20%	104%	strongly inhibited	24%	98%	35%	92%	2%	91%	not inhibited	not inhibited	strongly inhibited	not inhibited	strongly inhibited	neither activated				
[Fe+2] [Fe^2+]							82%		36%								88%	90%	35%	75%
